Measurements: ChEMBL document CHEMBL1147745, “Targeting FtsZ for antituberculosis drug discovery: noncytotoxic taxanes as novel antituberculosis agents” (J Med Chem, 2006)
In brackets after ≈: the same amount, converted by molar mass. Activity calls are given as the source filed them. No cut-off for these calls is given here.

What was measured:
[1] = test system: MCF7; assay: Cytotoxicity against human MCF7 cell line; format: functional, cell-based
[2] = test system: A549; assay: Cytotoxicity against human A549 cell line; format: functional, cell-based
[3] = test system: Mycobacterium tuberculosis; assay: Antimicrobial activity against Mycobacterium tuberculosis H37Rv; format: functional
[4] = test system: Mycobacterium tuberculosis; assay: Antimicrobial activity against Mycobacterium tuberculosis IMCJ946.K2; format: functional
[5] = molecular target: T1, Cell division protein FtsZ (Mycobacterium tuberculosis) (UniProt P9WN95); assay: FtsZ inactivation in MTB cells at MIC; format: cell-based
T1 sequence (whole entry): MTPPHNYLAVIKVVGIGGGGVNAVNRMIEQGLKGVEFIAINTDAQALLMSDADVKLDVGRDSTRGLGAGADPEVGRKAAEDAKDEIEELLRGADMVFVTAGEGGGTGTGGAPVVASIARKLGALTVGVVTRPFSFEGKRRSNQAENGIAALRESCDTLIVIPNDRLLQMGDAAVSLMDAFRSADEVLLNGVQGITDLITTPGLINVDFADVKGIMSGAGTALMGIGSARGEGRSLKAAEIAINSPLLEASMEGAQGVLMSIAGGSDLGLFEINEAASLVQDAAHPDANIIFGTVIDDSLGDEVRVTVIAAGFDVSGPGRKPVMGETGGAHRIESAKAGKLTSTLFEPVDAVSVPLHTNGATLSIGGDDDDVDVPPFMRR

Row | SMILES | IC50 [1] | IC50 [2] | MIC99 [3] | MIC99 [4] | Activity [5]
1 | CCCCCC(=O)O[C@H]1C(=O)[C@@]2(C)[C@H]([C@H](OC(=O)c3ccccc3)[C@]3(O)C[C@H](OC(=O)[C@H](O)[C@@H](NC(=O)c4ccccc4)c4ccccc4)C(C)=C1C3(C)C)[C@]1(OC(C)=O)CO[C@@H]1C[C@@H]2O | 0.65 µM | 0.65 µM | 5 µM (≈ 4.55 µg/mL) | 1.25 µM (≈ 1.14 µg/mL) | –
2 | CC(=O)O[C@@]12CO[C@@H]1C[C@H](O)[C@@]1(C)C(=O)[C@H](O)C3=C(C)[C@@H](OC(=O)/C=C/c4ccc(Oc5ccccc5)cc4)C[C@@](O)([C@@H](OC(=O)c4ccccc4)[C@H]21)C3(C)C | 9.3 µM | 12.5 µM | 10 µM (≈ 7.67 µg/mL) | 10 µM (≈ 7.67 µg/mL) | –
3 | CC(=O)O[C@@]12CO[C@@H]1C[C@H](O)[C@@]1(C)C(=O)[C@H](O)C3=C(C)[C@@H](OC(=O)/C=C/c4ccc5ccccc5c4)C[C@@](O)([C@@H](OC(=O)c4ccccc4)[C@H]21)C3(C)C | 4.5 µM | 15.7 µM | 5 µM (≈ 3.62 µg/mL) | 2.5 µM (≈ 1.81 µg/mL) | –
4 | CC(=O)O[C@@]1([C@@H]2/C(C)=C(/O)C(=O)C3=C(C)[C@@H](OC(=O)/C=C/c4ccc5ccccc5c4)C[C@@](O)([C@H]2OC(=O)c2ccccc2)C3(C)C)CO[C@@H]1CCO | > 80 µM | > 80 µM | 2.5 µM (≈ 1.81 µg/mL) | 1.25 µM (≈ 0.906 µg/mL) | Active
5 | COc1ccc2cc(/C=C/C(=O)O[C@H]3C[C@@]4(O)[C@@H](OC(=O)c5ccccc5)[C@@H]5[C@]6(OC(C)=O)CO[C@@H]6C[C@H](O)[C@@]5(C)C(=O)[C@H](O)C(=C3C)C4(C)C)ccc2c1 | 5.3 µM | 5 µM | 5 µM (≈ 3.77 µg/mL) | 5 µM (≈ 3.77 µg/mL) | –
6 | CC(=O)O[C@@]12CO[C@@H]1C[C@H](O)[C@@]1(C)C(=O)[C@H](OC(=O)CN(C)C)C3=C(C)[C@@H](OC(=O)/C=C/c4ccc5ccccc5c4)C[C@@](O)([C@@H](OC(=O)c4ccccc4)[C@H]21)C3(C)C | 7 µM | 10.8 µM | 10 µM (≈ 8.1 µg/mL) | 10 µM (≈ 8.1 µg/mL) | –
7 | CC(=O)O[C@@]12CO[C@@H]1C[C@H](O)[C@@]1(C)C(=O)[C@H](OC(=O)/C=C/c3ccc4ccccc4c3)C3=C(C)[C@@H](O)C[C@@](O)([C@@H](OC(=O)c4ccccc4)[C@H]21)C3(C)C | 14 µM | – | 20 µM (≈ 14.5 µg/mL) | 10 µM (≈ 7.25 µg/mL) | –
8 | CC(=O)O[C@@]1([C@@H]2/C(C)=C(/O)C(=O)C3=C(C)[C@@H](OC(=O)/C=C/c4ccc(Sc5ccccc5)cc4)C[C@@](O)([C@H]2OC(=O)c2ccccc2)C3(C)C)CO[C@@H]1CCO | > 80 µM | > 80 µM | 2.5 µM (≈ 1.96 µg/mL) | 1.25 µM (≈ 0.979 µg/mL) | –
9 | CC(=O)O[C@H]1C(=O)[C@@]2(C)[C@H]([C@H](OC(=O)c3ccccc3)[C@]3(O)C[C@H](OC(=O)[C@H](O)[C@@H](NC(=O)c4ccccc4)c4ccccc4)C(C)=C1C3(C)C)[C@]1(OC(C)=O)CO[C@@H]1C[C@@H]2O [PACLITAXEL] | 0.019 µM | 0.028 µM | 40 µM (≈ 34.2 µg/mL) | 40 µM (≈ 34.2 µg/mL) | –
10 | CC(=O)O[C@@]12CO[C@@H]1C[C@H](O)[C@@]1(C)C(=O)[C@H](O)C3=C(C)[C@@H](OC(=O)/C=C/c4cccc5ccccc45)C[C@@](O)([C@@H](OC(=O)c4ccccc4)[C@H]21)C3(C)C | 5.4 µM | 80 µM | 5 µM (≈ 3.62 µg/mL) | 5 µM (≈ 3.62 µg/mL) | –
11 | CCN(CC)CCC(=O)O[C@H]1C(=O)[C@@]2(C)[C@H]([C@H](OC(=O)c3ccccc3)[C@]3(O)C[C@H](OC(=O)/C=C/c4ccc5ccccc5c4)C(C)=C1C3(C)C)[C@]1(OC(C)=O)CO[C@@H]1C[C@@H]2O | 3.9 µM | 9.6 µM | 10 µM (≈ 8.52 µg/mL) | 5 µM (≈ 4.26 µg/mL) | –
12 | COc1ccc(C(=O)O[C@H]2[C@@H]3[C@]4(OC(C)=O)CO[C@@H]4C[C@H](O)[C@@]3(C)C(=O)[C@H](O)C3=C(C)[C@@H](OC(=O)/C=C/c4ccc5ccccc5c4)C[C@]2(O)C3(C)C)cc1 | 7.6 µM | 14 µM | 5 µM (≈ 3.77 µg/mL) | 2.5 µM (≈ 1.89 µg/mL) | –
13 | CCN(CC)CCC(=O)O[C@H]1C[C@H]2OC[C@@]2(OC(C)=O)[C@H]2[C@H](OC(=O)c3ccccc3)[C@]3(O)C[C@H](OC(=O)/C=C/c4ccc5ccccc5c4)C(C)=C([C@@H](OC(C)=O)C(=O)[C@]12C)C3(C)C | 9.4 µM | 17 µM | 10 µM (≈ 8.94 µg/mL) | 20 µM (≈ 17.9 µg/mL) | –
14 | CC(=O)O[C@@]12CO[C@@H]1C[C@H](OC(=O)CN(C)C)[C@@]1(C)C(=O)[C@H](O)C3=C(C)[C@@H](OC(=O)/C=C/c4ccc5ccccc5c4)C[C@@](O)([C@@H](OC(=O)c4ccccc4)[C@H]21)C3(C)C | > 20 µM | 4.3 µM | 20 µM (≈ 16.2 µg/mL) | 5 µM (≈ 4.05 µg/mL) | –
15 | CC(=O)O[C@@]12CO[C@@H]1C[C@H](O)[C@@]1(C)C(=O)[C@H](OC(=O)N(C)C)C3=C(C)[C@@H](OC(=O)/C=C/c4ccc5ccccc5c4)C[C@@](O)([C@@H](OC(=O)c4ccccc4)[C@H]21)C3(C)C | – | – | – | – | Active
16 | CC(=O)O[C@@]1([C@@H]2/C(C)=C(/O)C(=O)C3=C(C)[C@@H](OC(=O)/C=C/c4ccc(Oc5ccccc5)cc4)C[C@@](O)([C@H]2OC(=O)c2ccccc2)C3(C)C)CO[C@@H]1CCO | > 80 µM | > 80 µM | 2.5 µM (≈ 1.92 µg/mL) | 1.25 µM (≈ 0.959 µg/mL) | –
17 | COc1ccc2cc(/C=C/C(=O)O[C@H]3C[C@@]4(O)[C@@H](OC(=O)c5ccccc5)[C@H]([C@]5(OC(C)=O)CO[C@@H]5CCO)/C(C)=C(/O)C(=O)C(=C3C)C4(C)C)ccc2c1 | > 80 µM | > 80 µM | 2.5 µM (≈ 1.89 µg/mL) | 2.5 µM (≈ 1.89 µg/mL) | –
18 | CC(=O)O[C@@]12CO[C@@H]1C[C@H](O)[C@@]1(C)C(=O)[C@H](O)C3=C(C)[C@@H](OC(=O)/C=C/c4ccc(Sc5ccccc5)cc4)C[C@@](O)([C@@H](OC(=O)c4ccccc4)[C@H]21)C3(C)C | 3.4 µM | 4.5 µM | 2.5 µM (≈ 1.96 µg/mL) | 2.5 µM (≈ 1.96 µg/mL) | –
